Reference: publication PMC9325861, “Mouse precision-cut liver slices as an ex vivo model to study drug-induced cholestasis” (Archives of Toxicology, 2022)
Values joined by “and” are separate entries in the source; they are usually repeats but may differ in a detail not shown here. Identical values can stand only once. Counter-ions that a name gives are not always drawn.

Assays:
[1] = tested on: Mrp2 (Abcc2); assay: qRT-PCR gene expression in mouse PCLS: Mrp2; assay type: cell-based; settings: 48 h, in the presence and absence of BAs
Procedure: (§1) In short, freshly prepared PCLS were transferred to 12-well plates (Greiner bio-one GmbH, Austria), one slice per well. Each well was filled with 1.3 mL pre-heated (37 ℃) and oxygenated (80%) Williams Medium E (1X, glutaMAX-1), which had been supplemented with 25 mM D-glucose monohydrate and 50 μg/ml Gentamicin (denoted as WME GG). […] The DMSO concentration used was below 0.5% in the incubation medium, equivalent to DMSO concentrations in solutions prepared by dilution of BA stock solutions with WME GG.
Three PCLS incubated under a given condition were pooled in a 1.5-mL Rnase-free test tube, snap-frozen in liquid nitrogen, and stored at – 80 °C until analysis. RNA was isolated using a FavorPrep Tissue Total RNA Mini Kit (Favorgen, Vienna, Austria). Subsequently, the RNA yield was quantified using a NanoDrop One instrument (Thermo Fisher Scientific, Massachusetts, USA). Isolated RNA was reverse-transcribed to cDNA using a cDNA synthesis kit (Reverse Transcription System, Promega, Benelux B.V.). […]
qRT-PCR was used to determine the relative mRNA expression levels for the mouse target genes: Bsep (Abcb11), Mrp2 (Abcc2), Mrp3 (Abcc3), Mrp4 (Abcc4), Ntcp (Slc10a1), Fxr (Nr1h4), Cyp7a1 (Cyp7a1), Collagen type 1a1 (Col1a1), Hsp47 (Serpinh1). […] Samples were measured in duplicates. […] Results are expressed as log2(fold change).

[2] = tested on: mouse PCLS; assay: LC–MS/MS quantification of intracellular BAs in mouse PCLS; assay type: cell-based; settings: 48 h
Procedure: In short, freshly prepared PCLS were transferred to 12-well plates (Greiner bio-one GmbH, Austria), one slice per well. […] The composition of the human-like BA mixture was based on serum concentrations in mice and humans, measured by […]. […] A Shimadzu Nexera X2 HPLC system with binary pumps was interfaced to a Thermo Scientific TSQ Quantum ultra-triple quadrupole mass spectrometer. The BA analysis was performed by liquid chromatography-tandem mass spectrometry (LC-MS/MS). Xcalibur software version 2.0.7 by Thermo Scientific was applied in the data processing. […] Phenomenex, Utrecht, the Netherlands) reversed-phase column was used to separate the BAs. The column and autosampler temperatures were set at 55 °C and 4 °C, respectively. The injection volume was 15 μL, and the flow was set at 0.3 mL/min. […] Intracellular BA concentrations in PCLS were measured by LC-MS/MS. Sample preparation for these measurements of intracellular BAs was performed as follows. […] Hereafter, three slices for each condition were pooled in a 1.5-mL test tube, snap-frozen in liquid nitrogen and stored at -80 °C until analysis. […] Samples were subsequently centrifuged for 15 min at 15 °C and 13,000 rpm. The supernatant was collected in a new tube, and the samples were concentrated using a Concentrator plus centrifuge (Eppendorf, Germany). […] The concentrations of CA, CDCA, DCA, LCA, UDCA, HDCA, […] and GCA were determined with MRM-based LC-MS as described above.

[3] = tested on: rat PCLS; set-up: method as in Starokozhko et al. [2017a]; settings: in the presence of BAs, ref Starokozhko et al. [2017a]; cited from earlier work
[4] = tested on: Ntcp (Slc10a1); assay: qRT-PCR gene expression in mouse PCLS: Ntcp; assay type: cell-based; settings: 48 h
Procedure: as §1
Three PCLS incubated under a given condition were pooled in a 1.5-mL Rnase-free test tube, snap-frozen in liquid nitrogen, and stored at – 80 °C until analysis. RNA was isolated using a FavorPrep Tissue Total RNA Mini Kit (Favorgen, Vienna, Austria). Subsequently, the RNA yield was quantified using a NanoDrop One instrument (Thermo Fisher Scientific, Massachusetts, USA). Isolated RNA was reverse-transcribed to cDNA using a cDNA synthesis kit (Reverse Transcription System, Promega, Benelux B.V.). The cDNA samples were subsequently loaded in the thermal cycler with a program set to 22 °C for 10 min, 42 °C for 15 min, and 95 °C for 5 min.
qRT-PCR was used to determine the relative mRNA expression levels for the mouse target genes: Bsep (Abcb11), Mrp2 (Abcc2), Mrp3 (Abcc3), Mrp4 (Abcc4), Ntcp (Slc10a1), Fxr (Nr1h4), Cyp7a1 (Cyp7a1), Collagen type 1a1 (Col1a1), Hsp47 (Serpinh1). Primer sequences of the genes tested are given in Supplementary Table S1. QRT-PCR was performed using, the dye, FastStart Universal SYBR Green Master Mix (Roche Diagnostics Netherlands B.V., Almere, the Netherlands) with the ViiA™ 7 Real-Time PCR System (Applied Biosystems, Bleiswijk, the Netherlands). The first cycle constituted 10 min at 95 °C, followed by 40 cycles of 15 s at 95 °C, 30 s at 60 °C and 30 s at 72 °C, followed by 1 cycle dissociation stage (15 s: 95 °C, 60 °C and 95 °C). A minimum of four mouse livers was used for each experiment, using three PCLS per condition. Samples were measured in duplicates. […] Results are expressed as log2(fold change).

[5] = in the absence of the BA mixture
[6] = with humanized BA mixture, CPZ 15 µM, CSA 1 µM, GB 25 µM
[7] = with humanized BA mixture, CPZ 30 µM, CSA 6 µM, GB 65 µM
[8] = with humanized BA mixture, vs control
[9] = without BA mixture, CPZ 15 µM, CSA 1 µM, GB 25 µM
[10] = without BA mixture, CPZ 30 µM, CSA 6 µM, GB 65 µM
[11] = BAs present, highest concentration of CPZ, lowest concentration of GB

CN(C)CCCN1c2ccccc2Sc2ccc(Cl)cc21 [CPZ, Chlorpromazine hydrochloride]
Mrp2 gene expression [1]: reduces | Effect on total intracellular BA concentration [2, 5]: increased the total intracellular concentration of BAs | Intracellular CA concentration [2, 6]: 259.9±32.0 pmol/mg protein | Intracellular CDCA concentration [2, 6]: 20.9±1.8 pmol/mg protein | Intracellular DCA concentration [2, 6]: 87.7±14.0 pmol/mg protein | Intracellular GCA concentration [2, 6]: 34.7±16.0 pmol/mg protein | Intracellular HDCA concentration [2, 6]: 4.0±2.5 pmol/mg protein | Intracellular LCA concentration [2, 6]: 3.4±1.3 pmol/mg protein | Intracellular TCA concentration [2, 6]: 244.1±42.8 pmol/mg protein | Intracellular TCDCA concentration [2, 6]: 10.1±0.2 pmol/mg protein | Intracellular TDCA concentration [2, 6]: 14.1±0.8 pmol/mg protein | Intracellular THDCA concentration [2, 6]: 9.4±1.4 pmol/mg protein | Intracellular UDCA concentration [2, 6]: 34.2±4.0 pmol/mg protein | Total intracellular concentration of 11 BAs [2, 6]: 722.5±95.4 pmol/mg protein | Intracellular CA concentration [2, 7]: 314.1±29.7 pmol/mg protein | Intracellular CDCA concentration [2, 7]: 41.3±6.4 pmol/mg protein | Intracellular DCA concentration [2, 7]: 297 pmol/mg protein and 297.9±25.1 pmol/mg protein | Intracellular GCA concentration [2, 7]: 26.1±3.5 pmol/mg protein | Intracellular HDCA concentration [2, 7]: 13.6±3.9 pmol/mg protein | Intracellular LCA concentration [2, 7]: 14.9±8.6 pmol/mg protein | Intracellular TCA concentration [2, 7]: 351.2±67.0 pmol/mg protein | Intracellular TCDCA concentration [2, 7]: 18.2±5.3 pmol/mg protein | Intracellular TDCA concentration [2, 7]: 44.3±5.1 pmol/mg protein | Intracellular THDCA concentration [2, 7]: 9.0±3.0 pmol/mg protein | Intracellular UDCA concentration [2, 7]: 46.3±3.0 pmol/mg protein | Effect on total intracellular BA concentration [2, 8]: intracellular accumulation of BAs | Intracellular CA concentration [2, 9]: 0.3±0.0 pmol/mg protein | Intracellular CDCA concentration [2, 9]: 0.2±0.2 pmol/mg protein | Intracellular DCA concentration [2, 9]: 0.1±0.1 pmol/mg protein | Intracellular GCA concentration [2, 9]: 0.0±0.0 pmol/mg protein | Intracellular HDCA concentration [2, 9]: 0.0±0.0 pmol/mg protein | Intracellular LCA concentration [2, 9]: 0.2±0.1 pmol/mg protein | Intracellular TCA concentration [2, 9]: 0.8±0.1 pmol/mg protein | Intracellular TCDCA concentration [2, 9]: 14.4±1.7 pmol/mg protein | Intracellular TDCA concentration [2, 9]: 0.1±0.1 pmol/mg protein | Intracellular THDCA concentration [2, 9]: 2.4±0.3 pmol/mg protein | Intracellular UDCA concentration [2, 9]: 0.0±0.0 pmol/mg protein | Total intracellular concentration of 11 BAs [2, 9]: 18.7±0.0 pmol/mg protein | Intracellular CA concentration [2, 10]: 0.4±0.1 pmol/mg protein | Intracellular CDCA concentration [2, 10]: 0.4±0.2 pmol/mg protein | Intracellular DCA concentration [2, 10]: 0.1±0.1 pmol/mg protein | Intracellular GCA concentration [2, 10]: 0.0±0.0 pmol/mg protein | Intracellular HDCA concentration [2, 10]: 0.0±0.0 pmol/mg protein | Intracellular LCA concentration [2, 10]: 0.3±0.2 pmol/mg protein | Intracellular TCA concentration [2, 10]: 1.2±0.1 pmol/mg protein | Intracellular TCDCA concentration [2, 10]: 25.0±2.2 pmol/mg protein | Intracellular TDCA concentration [2, 10]: 0.1±0.1 pmol/mg protein | Intracellular THDCA concentration [2, 10]: 5.2±0.7 pmol/mg protein | Intracellular UDCA concentration [2, 10]: 0.0±0.0 pmol/mg protein | Total intracellular concentration of 11 BAs [2, 10]: 32.7±0.0 pmol/mg protein | Concentration reaching severe toxicity [3]: 36 µM | Ntcp gene expression [4, 11]: increase the expression of Ntcp significantly

COc1ccc(Cl)cc1C(=O)NCCc1ccc(S(=O)(=O)NC(=O)NC2CCCCC2)cc1 [GB, Glibenclamide]
Mrp2 gene expression [1]: increases the expression of Mrp2 | Effect on total intracellular BA concentration [2, 5]: decrease in intracellular concentrations of BAs | Intracellular CA concentration [2, 6]: 103.6±10.3 pmol/mg protein | Intracellular CDCA concentration [2, 6]: 14.7±1.6 pmol/mg protein | Intracellular DCA concentration [2, 6]: 50.7±7.4 pmol/mg protein | Intracellular GCA concentration [2, 6]: 13.4±2.4 pmol/mg protein | Intracellular HDCA concentration [2, 6]: 9.4±2.7 pmol/mg protein | Intracellular LCA concentration [2, 6]: 0.8±0.5 pmol/mg protein | Intracellular TCA concentration [2, 6]: 103.8±8.6 pmol/mg protein | Intracellular TCDCA concentration [2, 6]: 7.7±0.5 pmol/mg protein | Intracellular TDCA concentration [2, 6]: 7.6±0.8 pmol/mg protein | Intracellular THDCA concentration [2, 6]: 8.3±1.4 pmol/mg protein | Intracellular UDCA concentration [2, 6]: 19.1±1.7 pmol/mg protein | Total intracellular concentration of 11 BAs [2, 6]: 339.2±20.7 pmol/mg protein | Intracellular CA concentration [2, 7]: 132.3±11.3 pmol/mg protein | Intracellular CDCA concentration [2, 7]: 14.8±1.3 pmol/mg protein | Intracellular DCA concentration [2, 7]: 121.3±8.6 pmol/mg protein | Intracellular GCA concentration [2, 7]: 22.4 pmol/mg protein and 22.4±6.1 pmol/mg protein | Intracellular HDCA concentration [2, 7]: 25.7±1.5 pmol/mg protein | Intracellular LCA concentration [2, 7]: 0.9±0.3 pmol/mg protein | Intracellular TCA concentration [2, 7]: 135.2±19.9 pmol/mg protein | Intracellular TCDCA concentration [2, 7]: 8.6±1.2 pmol/mg protein | Intracellular TDCA concentration [2, 7]: 14.6±0.9 pmol/mg protein | Intracellular THDCA concentration [2, 7]: 11.4±2.6 pmol/mg protein | Intracellular UDCA concentration [2, 7]: 24.5±3.9 pmol/mg protein | Effect on total intracellular BA concentration [2, 8]: reduced or did not affect | Intracellular CA concentration [2, 9]: 0.5±0.0 pmol/mg protein | Intracellular CDCA concentration [2, 9]: 0.2±0.1 pmol/mg protein | Intracellular DCA concentration [2, 9]: 0.6±0.5 pmol/mg protein | Intracellular GCA concentration [2, 9]: 0.0±0.0 pmol/mg protein | Intracellular HDCA concentration [2, 9]: 0.0±0.0 pmol/mg protein | Intracellular LCA concentration [2, 9]: 0.1±0.1 pmol/mg protein | Intracellular TCA concentration [2, 9]: 0.7±0.2 pmol/mg protein | Intracellular TCDCA concentration [2, 9]: 2.3±0.5 pmol/mg protein | Intracellular TDCA concentration [2, 9]: 0.0±0.0 pmol/mg protein | Intracellular THDCA concentration [2, 9]: 1.8±0.3 pmol/mg protein | Intracellular UDCA concentration [2, 9]: 0.0±0.0 pmol/mg protein | Total intracellular concentration of 11 BAs [2, 9]: 6.3±0.0 pmol/mg protein | Intracellular CA concentration [2, 10]: 0.5±0.2 pmol/mg protein | Intracellular CDCA concentration [2, 10]: 0.4±0.3 pmol/mg protein | Intracellular DCA concentration [2, 10]: 0.1±0.1 pmol/mg protein | Intracellular GCA concentration [2, 10]: 0.0±0.0 pmol/mg protein | Intracellular HDCA concentration [2, 10]: 0.0±0.0 pmol/mg protein | Intracellular LCA concentration [2, 10]: 0.2±0.1 pmol/mg protein | Intracellular TCA concentration [2, 10]: 0.3±0.1 pmol/mg protein | Intracellular TCDCA concentration [2, 10]: 2.0±0.4 pmol/mg protein | Intracellular TDCA concentration [2, 10]: 0.0±0.0 pmol/mg protein | Intracellular THDCA concentration [2, 10]: 0.5±0.1 pmol/mg protein | Intracellular UDCA concentration [2, 10]: 0.0±0.0 pmol/mg protein | Total intracellular concentration of 11 BAs [2, 10]: 4.2±0.0 pmol/mg protein | Concentration reaching severe toxicity [3]: 180 µM | Ntcp gene expression [4, 11]: increase the expression of Ntcp significantly | Ntcp gene expression ([4]; in the absence of BAs): decrease the Ntcp expression
